# From ChEMBL document CHEMBL2029294, “Evaluation of endo- and exo-aryl-substitutions and central scaffold modifications on diphenyl substituted alkanes as 5-lipoxygenase activating protein inhibitors” (Bioorg Med Chem Lett, 2012)
# pIC50: −log10 of the molar value.
# Molecular target: T1, Arachidonate 5-lipoxygenase-activating protein (Homo sapiens, UniProt P20292)
# T1 sequence (P20292 whole entry): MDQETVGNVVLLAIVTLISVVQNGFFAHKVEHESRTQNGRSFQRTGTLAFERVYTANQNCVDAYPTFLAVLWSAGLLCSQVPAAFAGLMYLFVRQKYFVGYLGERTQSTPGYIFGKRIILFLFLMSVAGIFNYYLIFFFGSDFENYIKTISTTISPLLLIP
# Test: Displacement of [125I]L-691,831 from 5-lipoxygenase-activating protein in human polymorphonuclear cells
# Settings: not given
row,Compound,pIC50
1,CCC(CC)(c1ccccc1)c1cc(OCc2ccc3ccccc3n2)ccc1C(=O)OC,7.02
2,COC(=O)c1ccc(OCc2ccc3ccccc3n2)cc1C1(c2ccccc2)C2CCC1CC2 (configuration not stated),8.25
3,COC(=O)c1ccc(OCc2ccc3ccccc3n2)cc1C1(c2ccccc2)CCCCC1,7.82
4,COC(=O)c1ccc(OCc2ccc3ccccc3n2)cc1C1(c2ccccc2)CCC1,7.70
5,COC(=O)c1ccc(OCc2ccc3ccccc3n2)cc1C1(c2ccccc2)CC(C)C1 (configuration not stated),8.49
6,O=c1[nH]nc(-c2ccc(OCc3ccc4ccccc4n3)cc2[C@@]2(c3ccccc3)C[C@H]3CC[C@H]2C3)o1,9.10
7,CC(C)(C)[C@@H](c1ccccc1)c1cc(OCc2ccc3ccccc3n2)ccc1-c1n[nH]c(=O)o1,8.72
8,CC1(C)CC(c2ccccc2)(c2cc(OCc3ccc4ccccc4n3)ccc2-c2n[nH]c(=O)o2)C1,8.44
9,COC(=O)c1ccc(OCc2ccc3ccccc3n2)cc1[C@]1(c2cccc(F)c2)C[C@H]2CC[C@H]1C2 (racemic),8.64
10,COC(=O)c1ccc(OCc2ccc3ccccc3n2)cc1[C@]1(c2ccc(F)cc2)C[C@H]2CC[C@H]1C2 (racemic),8.02
11,COC(=O)c1ccc(OCc2ccc3ccccc3n2)cc1[C@]1(c2cccc(C(F)(F)F)c2)C[C@H]2CC[C@H]1C2 (racemic),8.13
12,COC(=O)c1ccc(OCc2ccc3ccccc3n2)cc1[C@]1(c2cccc(OC)c2)C[C@H]2CC[C@H]1C2 (racemic),8.60

# Further compounds by rising pIC50, results first:
row,pIC50,Compound
1,7.24,COC(=O)c1ccc(OCc2ccc3ccccc3n2)cc1C(C)(C)c1ccccc1
2,7.30,COC(=O)c1ccc(OCc2ccc3ccccc3n2)cc1C1(c2ccccc2)CC(F)(F)C1
3,8.07,COC(=O)c1ccc(OCc2ccc3ccccc3n2)cc1C1(c2ccccc2)CCCC1
4,8.26,COC(=O)c1ccc(OCc2ccc3ccccc3n2)cc1[C@]1(c2cccc(C)c2)C[C@H]2CC[C@H]1C2 (racemic)
5,8.28,COC(=O)c1ccc(OCc2ccc3ccccc3n2)cc1C1(c2ccccc2)CC(C)(C)C1
6,8.40,COC(=O)c1ccc(OCc2ccc3ccccc3n2)cc1[C@]1(c2ccccc2F)C[C@H]2CC[C@H]1C2 (racemic)
7,8.59,CC1CC(c2ccccc2)(c2cc(OCc3ccc4ccccc4n3)ccc2-c2n[nH]c(=O)o2)C1 (mixture of isomers)
8,8.68,COC(=O)c1ccc(OCc2ccc3ccccc3n2)cc1[C@]1(c2ccccc2)C[C@H]2CC[C@H]1C2 (racemic)
9,8.96,COc1cccc([C@]2(c3cc(OCc4ccc5ccccc5n4)ccc3-c3n[nH]c(=O)o3)C[C@H]3CC[C@H]2C3)c1

# Molecular target: T1, Arachidonate 5-lipoxygenase-activating protein
# Test: Inhibition of 5-lipoxygenase-activating protein in human polymorphonuclear cells assessed as inhibition of calcium ionophore-induced LTB4 production in presence of human whole blood
# Format: tissue-based
# Settings: not given
row,Compound,pIC50
1,CCC(CC)(c1ccccc1)c1cc(OCc2ccc3ccccc3n2)ccc1C(=O)OC,< 5.05
2,COC(=O)c1ccc(OCc2ccc3ccccc3n2)cc1C1(c2ccccc2)C2CCC1CC2 (configuration not stated),5.89
3,COC(=O)c1ccc(OCc2ccc3ccccc3n2)cc1C1(c2ccccc2)CCCCC1,5.81
4,COC(=O)c1ccc(OCc2ccc3ccccc3n2)cc1C1(c2ccccc2)CCC1,< 5.15
5,COC(=O)c1ccc(OCc2ccc3ccccc3n2)cc1C1(c2ccccc2)CC(C)C1 (configuration not stated),5.96
6,O=c1[nH]nc(-c2ccc(OCc3ccc4ccccc4n3)cc2[C@@]2(c3ccccc3)C[C@H]3CC[C@H]2C3)o1,6.33
7,CC(C)(C)[C@@H](c1ccccc1)c1cc(OCc2ccc3ccccc3n2)ccc1-c1n[nH]c(=O)o1,6.27
8,CC1(C)CC(c2ccccc2)(c2cc(OCc3ccc4ccccc4n3)ccc2-c2n[nH]c(=O)o2)C1,6.08
9,COC(=O)c1ccc(OCc2ccc3ccccc3n2)cc1[C@]1(c2cccc(F)c2)C[C@H]2CC[C@H]1C2 (racemic),6.33
10,COC(=O)c1ccc(OCc2ccc3ccccc3n2)cc1[C@]1(c2ccc(F)cc2)C[C@H]2CC[C@H]1C2 (racemic),5.85
11,COC(=O)c1ccc(OCc2ccc3ccccc3n2)cc1[C@]1(c2cccc(C(F)(F)F)c2)C[C@H]2CC[C@H]1C2 (racemic),< 5.07
12,COC(=O)c1ccc(OCc2ccc3ccccc3n2)cc1[C@]1(c2cccc(OC)c2)C[C@H]2CC[C@H]1C2 (racemic),6.49

# Second part, the compound after the results:
row,pIC50,Compound
1,< 5.05,COC(=O)c1ccc(OCc2ccc3ccccc3n2)cc1C(C)(C)c1ccccc1
2,< 5.05,COC(=O)c1ccc(OCc2ccc3ccccc3n2)cc1C1(c2ccccc2)CC(F)(F)C1
3,5.43,COC(=O)c1ccc(OCc2ccc3ccccc3n2)cc1C1(c2ccccc2)CCCC1
4,6.03,COC(=O)c1ccc(OCc2ccc3ccccc3n2)cc1[C@]1(c2cccc(C)c2)C[C@H]2CC[C@H]1C2 (racemic)
5,5.85,COC(=O)c1ccc(OCc2ccc3ccccc3n2)cc1C1(c2ccccc2)CC(C)(C)C1
6,5.80,COC(=O)c1ccc(OCc2ccc3ccccc3n2)cc1[C@]1(c2ccccc2F)C[C@H]2CC[C@H]1C2 (racemic)
7,6.16,CC1CC(c2ccccc2)(c2cc(OCc3ccc4ccccc4n3)ccc2-c2n[nH]c(=O)o2)C1 (mixture of isomers)
8,6.34,COC(=O)c1ccc(OCc2ccc3ccccc3n2)cc1[C@]1(c2ccccc2)C[C@H]2CC[C@H]1C2 (racemic)
9,6.43,COc1cccc([C@]2(c3cc(OCc4ccc5ccccc5n4)ccc3-c3n[nH]c(=O)o3)C[C@H]3CC[C@H]2C3)c1

# System: not listed separately
# Test: Clearance in Sprague-Dawley rat at 1 mg/kg, iv and 2 mg/kg, po
# Format: ADME, organism-based
# Settings: in vivo
row,Compound,clearance [mL/min/kg]
1,O=c1[nH]nc(-c2ccc(OCc3ccc4ccccc4n3)cc2[C@@]2(c3ccccc3)C[C@H]3CC[C@H]2C3)o1,7.3
2,CC(C)(C)[C@@H](c1ccccc1)c1cc(OCc2ccc3ccccc3n2)ccc1-c1n[nH]c(=O)o1,29
3,CC1(C)CC(c2ccccc2)(c2cc(OCc3ccc4ccccc4n3)ccc2-c2n[nH]c(=O)o2)C1,71

# More lines, now with the values ahead:
row,clearance [mL/min/kg],Compound
1,32,CC1CC(c2ccccc2)(c2cc(OCc3ccc4ccccc4n3)ccc2-c2n[nH]c(=O)o2)C1 (mixture of isomers)
2,7.2,COc1cccc([C@]2(c3cc(OCc4ccc5ccccc5n4)ccc3-c3n[nH]c(=O)o3)C[C@H]3CC[C@H]2C3)c1

# System: not listed separately
# Test: Volume of distribution in Sprague-Dawley rat at 1 mg/kg, iv and 2 mg/kg, po
# Format: ADME, organism-based
# Settings: in vivo
row,Compound,Vd [L/kg]
1,O=c1[nH]nc(-c2ccc(OCc3ccc4ccccc4n3)cc2[C@@]2(c3ccccc3)C[C@H]3CC[C@H]2C3)o1,1
2,CC(C)(C)[C@@H](c1ccccc1)c1cc(OCc2ccc3ccccc3n2)ccc1-c1n[nH]c(=O)o1,5.3
3,CC1(C)CC(c2ccccc2)(c2cc(OCc3ccc4ccccc4n3)ccc2-c2n[nH]c(=O)o2)C1,7.5

# Results, then the compound that gave them:
row,Vd [L/kg],Compound
1,3.1,CC1CC(c2ccccc2)(c2cc(OCc3ccc4ccccc4n3)ccc2-c2n[nH]c(=O)o2)C1 (mixture of isomers)
2,0.7,COc1cccc([C@]2(c3cc(OCc4ccc5ccccc5n4)ccc3-c3n[nH]c(=O)o3)C[C@H]3CC[C@H]2C3)c1

# System: Rattus norvegicus
# Test: Dose normalised AUC in Sprague-Dawley rat at 1 mg/kg, iv
# Format: ADME, organism-based
# Parameters: dose 1 mg/kg, route intravenous
# Settings: in vivo
row,Compound,AUC/dose [µM·kg·h/mg]
1,O=c1[nH]nc(-c2ccc(OCc3ccc4ccccc4n3)cc2[C@@]2(c3ccccc3)C[C@H]3CC[C@H]2C3)o1,0.58
2,CC(C)(C)[C@@H](c1ccccc1)c1cc(OCc2ccc3ccccc3n2)ccc1-c1n[nH]c(=O)o1,0.34
3,CC1(C)CC(c2ccccc2)(c2cc(OCc3ccc4ccccc4n3)ccc2-c2n[nH]c(=O)o2)C1,0.05

# More lines, now with the values ahead:
row,AUC/dose [µM·kg·h/mg],Compound
1,0.19,CC1CC(c2ccccc2)(c2cc(OCc3ccc4ccccc4n3)ccc2-c2n[nH]c(=O)o2)C1 (mixture of isomers)
2,0.79,COc1cccc([C@]2(c3cc(OCc4ccc5ccccc5n4)ccc3-c3n[nH]c(=O)o3)C[C@H]3CC[C@H]2C3)c1

# System: not listed separately
# Test: Cmax in Sprague-Dawley rat at 1 mg/kg, iv and 2 mg/kg, po
# Format: ADME, organism-based
# Settings: in vivo
row,Compound,Cmax [nM]
1,O=c1[nH]nc(-c2ccc(OCc3ccc4ccccc4n3)cc2[C@@]2(c3ccccc3)C[C@H]3CC[C@H]2C3)o1,400
2,CC(C)(C)[C@@H](c1ccccc1)c1cc(OCc2ccc3ccccc3n2)ccc1-c1n[nH]c(=O)o1,250
3,CC1(C)CC(c2ccccc2)(c2cc(OCc3ccc4ccccc4n3)ccc2-c2n[nH]c(=O)o2)C1,10

# Further lines, results first:
row,Cmax [nM],Compound
1,120,CC1CC(c2ccccc2)(c2cc(OCc3ccc4ccccc4n3)ccc2-c2n[nH]c(=O)o2)C1 (mixture of isomers)
2,670,COc1cccc([C@]2(c3cc(OCc4ccc5ccccc5n4)ccc3-c3n[nH]c(=O)o3)C[C@H]3CC[C@H]2C3)c1

# System: not listed separately
# Test: Half life in Sprague-Dawley rat at 1 mg/kg, iv and 2 mg/kg, po
# Format: ADME, organism-based
# Settings: in vivo
row,Compound,half-life [h]
1,O=c1[nH]nc(-c2ccc(OCc3ccc4ccccc4n3)cc2[C@@]2(c3ccccc3)C[C@H]3CC[C@H]2C3)o1,1
2,CC(C)(C)[C@@H](c1ccccc1)c1cc(OCc2ccc3ccccc3n2)ccc1-c1n[nH]c(=O)o1,4.3
3,CC1(C)CC(c2ccccc2)(c2cc(OCc3ccc4ccccc4n3)ccc2-c2n[nH]c(=O)o2)C1,1.7

# The remaining lines, values ahead:
row,half-life [h],Compound
1,2,CC1CC(c2ccccc2)(c2cc(OCc3ccc4ccccc4n3)ccc2-c2n[nH]c(=O)o2)C1 (mixture of isomers)
2,1.2,COc1cccc([C@]2(c3cc(OCc4ccc5ccccc5n4)ccc3-c3n[nH]c(=O)o3)C[C@H]3CC[C@H]2C3)c1

# System: not listed separately
# Test: Oral bioavailability in Sprague-Dawley rat at 2 mg/kg
# Format: ADME, organism-based
# Settings: in vivo
row,Compound,bioavailability [%]
1,O=c1[nH]nc(-c2ccc(OCc3ccc4ccccc4n3)cc2[C@@]2(c3ccccc3)C[C@H]3CC[C@H]2C3)o1,12
2,CC(C)(C)[C@@H](c1ccccc1)c1cc(OCc2ccc3ccccc3n2)ccc1-c1n[nH]c(=O)o1,27
3,CC1(C)CC(c2ccccc2)(c2cc(OCc3ccc4ccccc4n3)ccc2-c2n[nH]c(=O)o2)C1,9

# Other lines, results leading:
row,bioavailability [%],Compound
1,17,CC1CC(c2ccccc2)(c2cc(OCc3ccc4ccccc4n3)ccc2-c2n[nH]c(=O)o2)C1 (mixture of isomers)
2,17,COc1cccc([C@]2(c3cc(OCc4ccc5ccccc5n4)ccc3-c3n[nH]c(=O)o3)C[C@H]3CC[C@H]2C3)c1
